Test results from patent US7300946B2, “N-(substituted arylmethyl)-4-(disubstituted methyl) piperidines and pyridines” (Bayer CropScience AG, priority 2002, dated 2007).

Tested on: tobacco budworm (Heliothis virescens [Fabricius])
Experiment: surface-treated diet test against the tobacco budworm
Type: in vivo
Conditions: tobacco budworm second instar larvae, surface-treated diet, 0.25 millimoles of candidate insecticide on the surface of the diet, five-day exposure; for Percent Mortality: compared to total number of insects infested; for Percent Growth Inhibition: inhibition of insect weight relative to untreated controls
Protocol: Candidate insecticides were evaluated for activity against the tobacco budworm (Heliothis virescens [Fabricius]) in a surface-treated diet test.
In this test one mL of molten (65–70° C.) wheat germ-based artificial diet was pipetted into each well of a four by six (24 well) multi-well plate (ID# 430345-15.5 mm dia.×17.6 mm deep; Corning Costar Corp., One Alewife Center, Cambridge, Mass. 02140). The diet was allowed to cool to ambient temperature before treatment with candidate insecticide.
For a determination of insecticidal activity, solutions of the candidate insecticides were prepared for testing using a Packard 204DT Multiprobe® Robotic System (Packard Instrument Company, 800 Research Parkway, Meriden, Conn. 06450), in which the robot first diluted a standard 50 millimolar DMSO solution of candidate insecticide with a 1:1 water/acetone solution (V/V) in a ratio of 1:7 stock solution to water/acetone. The robot subsequently pipetted 40 microliters of the so-prepared solution onto the surface of the diet in each of three wells in the 24 multi-well plate. The process was repeated with solutions of seven other candidate insecticides. Once treated, the contents of the multi-well plate were allowed to dry, leaving 0.25 millimoles of candidate insecticide on the surface of the diet, or a concentration of 0.25 millimolar. Appropriate untreated controls containing only DMSO on the diet surface were also included in this test. […]
In each well of the test plate was placed one second instar tobacco budworm larvea, each weighing approximately five milligrams. After the larvae were placed in each well, the plate was sealed with clear polyfilm adhesive tape. The tape over each well was perforated to ensure an adequate air supply. The plates were then held in a growth chamber at 25° C. and 60% relative humidity for five days (light 14 hours/day).
After the five-day exposure period insecticidal activity for each rate of application of candidate insecticide was assessed as percent inhibition of insect weight relative to the weight of insects from untreated controls, and percent mortality when compared to the total number of insects infested.
The test compounds of formula I are identified by numbers that correspond to those in Table 1.
These tests were conducted with 0.25 millimoles of candidate insecticide on the surface of the diet.

Row | Structure (SMILES) | Percent Mortality [%] | Percent Growth Inhibition [%]
1 | CCOC(=O)Nc1ccc(C[N+]2([O-])CCC(=C(c3ccc(C(F)(F)F)cc3)c3ccc(C(F)(F)F)cc3)CC2)cc1 (stereo not drawn) [Compound 101, N-{4-[(4-{bis[4-(trifluoromethyl)phenyl]methylene}piperidyl)methyl]phenyl}ethoxycarboxamide, N-oxide] | 100 | 100
2 | CCCOC(=O)Nc1ccc(C[N+]2([O-])CCC(=C(c3ccc(C(F)(F)F)cc3)c3ccc(C(F)(F)F)cc3)CC2)cc1 (stereo not drawn) [Compound 102] | 100 | 100
3 | CC(C)OC(=O)Nc1ccc(C[N+]2([O-])CCC(=C(c3ccc(C(F)(F)F)cc3)c3ccc(C(F)(F)F)cc3)CC2)cc1 (stereo not drawn) [Compound 103] | 100 | 100
4 | CC(C)COC(=O)Nc1ccc(C[N+]2([O-])CCC(=C(c3ccc(C(F)(F)F)cc3)c3ccc(C(F)(F)F)cc3)CC2)cc1 (stereo not drawn) [Compound 104] | 100 | 100
5 | [O-][N+]1(Cc2ccc(OCc3nccs3)cc2)CCC(=C(c2ccc(C(F)(F)F)cc2)c2ccc(C(F)(F)F)cc2)CC1 (stereo not drawn) [Compound 105] | 100 | 100
6 | [O-][N+]1(Cc2ccc(Oc3ccccn3)cc2)CCC(=C(c2ccc(C(F)(F)F)cc2)c2ccc(C(F)(F)F)cc2)CC1 (stereo not drawn) [Compound 106] | 100 | 100
7 | [O-][N+]1(Cc2ccc(Oc3ccc(Cl)cn3)cc2)CCC(=C(c2ccc(C(F)(F)F)cc2)c2ccc(C(F)(F)F)cc2)CC1 (stereo not drawn) [Compound 107] | 100 | 100
8 | [O-][N+]1(Cc2ccc(Oc3cccc(Cl)n3)cc2)CCC(=C(c2ccc(C(F)(F)F)cc2)c2ccc(C(F)(F)F)cc2)CC1 (stereo not drawn) [Compound 108] | 100 | 100
9 | [O-][N+]1(Cc2ccc(Oc3ncccc3C(F)(F)F)cc2)CCC(=C(c2ccc(C(F)(F)F)cc2)c2ccc(C(F)(F)F)cc2)CC1 (stereo not drawn) [Compound 109] | 100 | 100
10 | N#Cc1ccc(Oc2ccc(C[N+]3([O-])CCC(=C(c4ccc(C(F)(F)F)cc4)c4ccc(C(F)(F)F)cc4)CC3)cc2)nc1 (stereo not drawn) [Compound 111] | 100 | 100
11 | Cn1nnc(-c2ccc(C[N+]3([O-])CCC(=C(c4ccc(C(F)(F)F)cc4)c4ccc(C(F)(F)F)cc4)CC3)cc2)n1 (stereo not drawn) [Compound 112] | 100 | 100
12 | CCn1nnc(-c2ccc(C[N+]3([O-])CCC(=C(c4ccc5c(c4)OC(F)(F)O5)c4ccc5c(c4)OC(F)(F)O5)CC3)cc2)n1 (stereo not drawn) [Compound 115] | 100 | 100
13 | FC(F)(F)c1ccc(C(=C2CC3CCCC(C2)N3Cc2ccc(Oc3ccccn3)cc2)c2ccc(C(F)(F)F)cc2)cc1 [Compound 117, 2-{4-[(9-aza-3-{bis[4-(trifluoromethyl)phenyl]methylene}bicyclo[3.3.1]non-9-yl)methyl]phenoxy}pyridine] | 100 | 100
14 | O=C(Nc1ccc(F)cc1)Oc1ccc(CN2CCC(C(OC(=O)Nc3ccc(F)cc3)c3ccc(OC(F)(F)F)cc3)CC2)cc1 (stereo not drawn) [Compound 181] | 100 | 100
15 | CCON=Cc1ccc(CN2CCC(C(OC(=O)Nc3ccc(Cl)cc3)c3ccc(C(F)(F)F)cc3)CC2)cc1 (stereo not drawn) [Compound 182] | 100 | 100
16 | CCON=Cc1ccc(CN2CCC(C(OC(=O)Nc3ccc(Br)cc3)c3ccc(C(F)(F)F)cc3)CC2)cc1 (stereo not drawn) [Compound 183] | 100 | 100
17 | CCON=Cc1ccc(CN2CCC(C(OC(=O)Nc3cccc(Cl)c3Cl)c3ccc(C(F)(F)F)cc3)CC2)cc1 (stereo not drawn) [Compound 188] | 100 | 100
18 | CCON=Cc1ccc(CN2CCC(C(OC(=O)Nc3ccc(Cl)c(Cl)c3)c3ccc(C(F)(F)F)cc3)CC2)cc1 (stereo not drawn) [Compound 189] | 100 | 100
19 | CCON=Cc1ccc(CN2CCC(C(OC(=O)Nc3ccc(Cl)cc3Cl)c3ccc(C(F)(F)F)cc3)CC2)cc1 (stereo not drawn) [Compound 190] | 100 | 100
20 | CCON=Cc1ccc(CN2CCC(C(OC(=O)Nc3cc(Cl)ccc3Cl)c3ccc(C(F)(F)F)cc3)CC2)cc1 (stereo not drawn) [Compound 191] | 100 | 100
21 | CCON=Cc1ccc(CN2CCC(C(OC(=O)Nc3cc(Cl)c(Cl)cc3Cl)c3ccc(C(F)(F)F)cc3)CC2)cc1 (stereo not drawn) [Compound 192] | 67 | 98
22 | CCON=Cc1ccc(CN2CCC(C(OC(=O)Nc3ccc(F)cc3F)c3ccc(C(F)(F)F)cc3)CC2)cc1 (stereo not drawn) [Compound 193] | 100 | 100
23 | CON=Cc1ccc(CN2CCC(C(OC(=O)Nc3ccc(F)c(F)c3)c3ccc(OC(F)(F)F)cc3)CC2)cc1 (stereo not drawn) [Compound 194] | 100 | 100
24 | CCON=Cc1ccc(CN2CCC(C(OC(=O)Nc3ccc(F)c(F)c3)c3ccc(OC(F)(F)F)cc3)CC2)cc1 (stereo not drawn) [Compound 195] | 100 | 100
25 | CCON=Cc1ccc(CN2CCC(C(OC(=O)Nc3ccc(F)c(F)c3)c3ccc(C(F)(F)F)cc3)CC2)cc1 (stereo not drawn) [Compound 196] | 100 | 100
26 | CCON=Cc1ccc(CN2CCC(C(OC(=O)Nc3c(F)cccc3F)c3ccc(C(F)(F)F)cc3)CC2)cc1 (stereo not drawn) [Compound 199] | 100 | 100
27 | CCON=Cc1ccc(CN2CCC(C(OC(=O)Nc3cc(F)cc(F)c3)c3ccc(C(F)(F)F)cc3)CC2)cc1 (stereo not drawn) [Compound 200] | 100 | 100
28 | CCON=Cc1ccc(CN2CCC(C(OC(=O)Nc3ccc(F)c(F)c3F)c3ccc(C(F)(F)F)cc3)CC2)cc1 (stereo not drawn) [Compound 201] | 100 | 100
29 | CCON=Cc1ccc(CN2CCC(C(OC(=O)Nc3c(F)c(F)c(F)c(F)c3F)c3ccc(C(F)(F)F)cc3)CC2)cc1 (stereo not drawn) [Compound 202] | 100 | 100
30 | CCON=Cc1ccc(CN2CCC(C(OC(=O)Nc3ccccc3C(F)(F)F)c3ccc(C(F)(F)F)cc3)CC2)cc1 (stereo not drawn) [Compound 203] | 100 | 100
